Laboratory results published in publication PMC2362650, “Phase I and pharmacokinetic study of the topoisomerase II catalytic inhibitor fostriecin” (British Journal of Cancer, 1999).

Columns and labels:
[1] = Plasma and urine pharmacokinetics (HPLC-UV) in patients after 60-min IV infusion; format: in vivo, human; conditions: patients who received 12.2 mg m-2 (and above) fostriecin
Source text: Fostriecin (CI-920) is a topoisomerase (topo) II catalytic activity inhibitor (Boritzki et al, 1988) (Figure 1). This novel class of topo II-targeting drugs is considered of potential value for treatment of patients with tumours resistant to classic topo II poisons, including anthracyclines and podophyllotoxins (Cummings and Smyth, 1993). The nuclear enzyme topo II is essential for the regulation of DNA conformation (reviewed in Osheroff et al, 1991). Central in its action is the formation of a complex with DNA. Stabilization of this complex by topo II poisons induces DNA damage and cell death (Froelich-Ammon and Osheroff, 1995). Decreased complex formation due to decreased topo II levels is considered to be an important mechanism of tumour-resistance to topo II poisons (Beck and Danks, 1991). The topo II catalytic inhibitor fostriecin is expected to have increased activity against tumour cells with low topo II levels and this was confirmed in in vitro studies (De Jong et al, 1991). […] Because of increased toxi- city of fostriecin in dogs compared to mice, a dose below one-third of the one-tenth mouse equivalent LD10, 2 mg m-2 day-1, was chosen as starting dose in humans (Clinical Brochure Fostriecin, 1991). […] We also performed an analysis of the human pharmacokinetics of fostriecin and ex vivo experiments to investigate if the plasma drug concentrations achieved were sufficient to inhibit a tenipo- side-resistant tumour cell line. The maximum tolerated dose (MTD) of fostriecin could not be established because drug supply was stopped prematurely. However, results of this study may provide a basis for continued clinical development of this agent. PATIENTS AND METHODS Patient selection, drug administration and evaluation Patient eligibility criteria were: histologically confirmed diagnosis of a solid tumour, no longer amenable to established forms of treatment; age 18-75 years; Eastern Cooperative Oncology Group (ECOG) performance status 2; life expectancy 12 weeks; no Phase I and pharmacokinetic study of the topoisomerase II catalytic inhibitor fostriecin RS de Jong1, NH Mulder1, DRA Uges2, DTh Sleijfer1, FJP Hoppener4, HJM Groen3, PHB Willemse1, WTA van der Graaf1 and EGE de Vries1 Departments of 1Medical Oncology, 2Pharmacy and Toxicology, and 3Pulmonary Diseases, University Hospital Groningen, The Netherlands; 4EORTC New Drug Development Office, Amsterdam, The Netherlands Summary We conducted a phase I and pharmacokinetic study of the topoisomerase II catalytic inhibitor fostriecin. Fostriecin was administered intravenously over 60 min on days 1-5 at 4-week intervals. Dose was escalated from 2 mg m-2 day-1 to 20 mg m-2 day-1 in 20 patients. Drug pharmacokinetics was analysed with high performance liquid chromatography with UV-detection. Plasma collected during drug administration was tested in vitro for growth inhibition of a teniposide-resistant small-cell lung cancer (SCLC) cell line. The predominant toxicities were elevated liver transaminases (maximum common toxicity criteria (CTC) grade 4) and serum creatinine (maximum CTC grade 2). […] Duration of elevated alanine-amino transferase (ALT) was dose-limiting in one patient at 20 mg m-2. Other frequent toxicities were grade 1-2 nausea/vomiting, fever and mild fatigue. […] A metabolite, most probably dephosphorylated fostriecin, was detected in plasma and urine. […] However, further escalation seems possible and is warranted to achieve potentially effective drug levels. Fostriecin has a short plasma half-life and longer duration of infusion should be considered. […]

GLC4/VM20x = tested on: GLC4/VM20x; set-up: method as in Withoff et al, 1996; conditions: ref Withoff et al, 1996; cited from earlier work

Compound | metabolite in plasma and urine [1] | acquired resistance of GLC4/VM20x compared to GLC4 (GLC4/VM20x) [fold]
C[C@@](O)(/C=C/[C@H]1CC=CC(=O)O1)[C@H](O)C[C@@H](O)\C=C/C=C\C=C\CO [dephosphorylated fostriecin] | detected | 
COc1cc([C@@H]2c3cc4c(cc3[C@@H](O[C@@H]3O[C@@H]5CO[C@@H](c6cccs6)O[C@H]5[C@H](O)[C@H]3O)[C@H]3COC(=O)[C@H]23)OCO4)cc(OC)c1O [teniposide, reference compound] |  | 20
